These results are taken from US20230285340A1, “NEPRILYSIN INHIBITORS” (THERAVANCE BIOPHARMA R&D IP, LLC, priority 2011, published 2023).

SMILES strings stand for the structures.

The target of one test is human NEP (Homo sapiens (Human), UniProt P08473). Kind of test: In vitro enzyme inhibition assay at human NEP (Assay 1). The format is biochemical. The conditions noted are these: comparative examples, exact values.
What is called pKi is the negative decadic logarithm of the Ki, by convention in mol/L. Read a low pKi as a high Ki. For the molecule `C[C@H](C[C@@H](Cc1ccc(-c2ccccc2)cc1)NC(=O)C(=O)O)C(=O)O` [Comparative Compound A, (2R,4S)-5-Biphenyl-4-yl-2-methyl-4-(oxalyl-amino)-pentanoic Acid, reference compound], the pKi is on record as 8.2.

The test is the same for the next values; noted with them: reported as ranges.
For the molecule `Cc1ccc(Cl)cc1-c1ccc(C[C@H](C[C@@H](O)C(=O)O)NC(=O)C(=O)O)cc1` [Example 5-1, (2R,4R)-5-(5′-Chloro-2′-methylbiphenyl-4-yl)-2-hydroxy-4-(oxalylamino)-pentanoic acid], the pKi is reported as at least 9.
`O=C(O)C(=O)N[C@H](Cc1ccc(-c2cc(Cl)ccc2F)cc1)C[C@@H](O)C(=O)O` [Example 5-5, (2R,4R)-5-(5′-Chloro-2′-fluorobiphenyl-4-yl)-2-hydroxy-4-(oxalylamino)pentanoic acid]: the pKi is recorded as at least 9.
Molecule `O=C(O)C(=O)N[C@H](Cc1ccc(-c2cccc(Cl)c2)cc1Cl)C[C@@H](O)C(=O)O` [Example 5-9, (2R,4R)-5-(3,3′-Dichlorobiphenyl-4-yl)-2-hydroxy-4-(oxalylamino)pentanoic acid] yielded a pKi of at least 9.
Molecule `O=C(O)C(=O)NN(Cc1ccc(-c2cc(Cl)ccc2F)cc1Cl)C[C@@H](O)C(=O)O` [Example 5-13, (R)-3-[N-(3,5′-Dichloro-2′-fluorobiphenyl-4-ylmethyl)-N′-oxalyl-hydrazino]-2-hydroxypropionic acid] displayed a pKi of at least 9.
Consider `CCOC(=O)C(=O)N[C@H](Cc1ccc(-c2cc(Cl)ccc2F)cc1)C[C@@H](O)C(=O)O` [Example 5-14, (2R,4R)-5-(5′-Chloro-2′-fluorobiphenyl-4-yl)-4-(ethoxyoxalylamino)-2-hydroxy-pentanoic acid], for which the pKi is reported as at least 9.
Molecule `CC(C)OC(=O)C(=O)N[C@H](Cc1ccc(-c2cc(Cl)ccc2F)cc1)C[C@@H](O)C(=O)O` [Example 5-15, (2R,4R)-5-(5′-Chloro-2′-fluorobiphenyl-4-yl)-2-hydroxy-4-(isopropoxyoxalyl-amino)-pentanoic acid] showed a pKi of at least 9.
Same read-out and setting: for `CCOC(=O)[C@H](O)C[C@@H](Cc1ccc(-c2cccc(Cl)c2)cc1Cl)NC(=O)C(=O)O` [Example 5-17, (2R,4R)-5-(3,3′-Dichlorobiphenyl-4-yl)-2-hydroxy-4-(oxalylamino)pentanoic acid ethyl ester] the value was at least 9; for `C[C@@](CO)(C[C@@H](Cc1ccc(-c2ccccc2F)cc1)NC(=O)C(=O)O)C(=O)O` [Example 11-1, (2S,4R)-5-(2′-Fluorobiphenyl-4-yl)-2-hydroxymethyl-2-methyl-4-(oxalylamino)pentanoic acid], 8.0-8.9.
Still for that read-out and setting: with `C[C@@](CO)(C[C@@H](Cc1ccc(-c2cc(Cl)ccc2F)cc1)NC(=O)C(=O)O)C(=O)O` [Example 11-2, (2S,4R)-5-(5′-Chloro-2′-fluorobiphenyl-4-yl)-2-hydroxymethyl-2-methyl-4-(oxalyl-amino)pentanoic acid] the figure was at least 9; with `C[C@@](CO)(C[C@@H](Cc1ccc(-c2ccc(F)cc2)cc1)NC(=O)C(=O)O)C(=O)O` [Example 11-3, (2S,4R)-5-(4′-Fluorobiphenyl-4-yl)-2-hydroxymethyl-2-methyl-4-(oxalylamino)pentanoic acid], 7.0-7.9.
Take `CC(C)COC(=O)C(=O)N[C@H](Cc1ccc(-c2cccc(Cl)c2)cc1)C[C@@](C)(CO)C(=O)O` [Example 11-4, (2S,4R)-5-(3′-Chlorobiphenyl-4-yl)-2-hydroxymethyl-4-(isobutoxyoxalyl-amino)-2-methylpentanoic acid]: the pKi is recorded as 8.0-8.9.
